# The source made the active and inactive calls. The calls are words filed in the database; no cut-off is given here.
# Experiments:
# MDA-MB-435 = assay: Growth inhibition of human MDA-MB-435 cells at 10 uM by sulforhodamine B assay; format: functional, cell-based
# SW-620 = assay: Growth inhibition of human SW620 cells at 10 uM by sulforhodamine B assay; format: functional, cell-based
# IGROV-1 = assay: Growth inhibition of human IGROV1 cells at 10 uM by sulforhodamine B assay; format: functional, cell-based
# A549 [1] = assay: Induction of morphological changes in human A549 cells at 10 to 50 uM; format: functional, cell-based
# A549 [2] = assay: Induction of cellular senescence in human A549 cells assessed as increase of endogenous level of beta-galactosidase by […]/X-gal staining; format: functional, cell-based
# A498 = assay: Growth inhibition of human A498 cells at 10 uM by sulforhodamine B assay; format: functional, cell-based
# HCT-15 = assay: Growth inhibition of human HCT15 cells at 10 uM by sulforhodamine B assay; format: functional, cell-based
# SNB-19 = assay: Growth inhibition of human SNB19 cells at 10 uM by sulforhodamine B assay; format: functional, cell-based
# Malme-3M = assay: Growth inhibition of human MALME-3M cells at 10 uM by sulforhodamine B assay; format: functional, cell-based
# CCRF-CEM = assay: Growth inhibition of human CCRF-CEM cells at 10 uM by sulforhodamine B assay; format: functional, cell-based
# TK-10 = assay: Growth inhibition of human TK10 cells at 10 uM by sulforhodamine B assay; format: functional, cell-based
# A549 [3] = assay: Cytotoxicity against human A549 cells assessed as decrease in cell viability at 10 uM after 24 hrs by MTT assay relative to control; format: functional
# OVCAR-8 = assay: Growth inhibition of human OVCAR8 cells at 10 uM by sulforhodamine B assay; format: functional, cell-based
# SK-MEL-5 = assay: Growth inhibition of human SK-MEL-5 cells at 10 uM by sulforhodamine B assay; format: functional, cell-based
# HT-29 = assay: Growth inhibition of human HT-29 cells at 10 uM by sulforhodamine B assay; format: functional, cell-based
# HOP-92 = assay: Growth inhibition of human HOP92 cells at 10 uM by sulforhodamine B assay; format: functional, cell-based
# A549 [4] = assay: Cell cycle arrest in human A549 cells assessed as accumulation at G0/G1 phase at 20 uM after 48 hrs using propidium iodide staining by flow cytometer analysis (reference value: 79.34%); format: functional
# HOP-62 = assay: Growth inhibition of human HOP62 cells at 10 uM by sulforhodamine B assay; format: functional, cell-based
# SF-295 = assay: Growth inhibition of human SF295 cells at 10 uM by sulforhodamine B assay; format: functional, cell-based
# KM12 = assay: Growth inhibition of human KM12 cells at 10 uM by sulforhodamine B assay; format: functional, cell-based
# NCI-H522 = assay: Growth inhibition of human NCI-H522 cells at 10 uM by sulforhodamine B assay; format: functional, cell-based
# SF-539 = assay: Growth inhibition of human SF539 cells at 10 uM by sulforhodamine B assay; format: functional, cell-based
# A549 [5] = assay: Cell cycle arrest in human A549 cells assessed as accumulation at S phase at 20 uM after 48 hrs using propidium iodide staining by flow cytometer analysis (reference value: 6.67%); format: functional
# A549 [6] = assay: Induction of apoptosis in human A549 cells assessed as activation of caspase; format: functional, cell-based
# BT-549 = assay: Growth inhibition of human BT549 cells at 10 uM by sulforhodamine B assay; format: functional, cell-based
# A549 [7] = assay: Cell cycle arrest in human A549 cells assessed as accumulation at G0/G1 phase at 5 uM after 48 hrs using propidium iodide staining by flow cytometer analysis (reference value: 79.34%); format: functional
# T47D = assay: Growth inhibition of human T47D cells at 10 uM by sulforhodamine B assay; format: functional, cell-based
# A549 [8] = assay: Inhibition of colony formation in human A549 cells assessed as change in colony morphology after 14 days using crystal violet staining by soft agar assay; format: functional, cell-based
# UO-31 = assay: Growth inhibition of human UO31 cells at 10 uM by sulforhodamine B assay; format: functional, cell-based
smiles,measurement,setting,value
COc1ccc(-c2nc(-c3ccccn3)c(-c3ccccn3)n2CC(C)C)cc1OC1CCCC1,growth inhibition (GI),MDA-MB-435,Active
same,growth inhibition (GI),SW-620,Active
same,growth inhibition (GI),IGROV-1,Active
same,Activity,A549 [1],Active
same,Activity,A549 [2],Dose-dependent effect
same,growth inhibition (GI),A498,Active
same,growth inhibition (GI),HCT-15,Active
same,growth inhibition (GI),SNB-19,Active
same,growth inhibition (GI),Malme-3M,Active
same,growth inhibition (GI),CCRF-CEM,Active
same,growth inhibition (GI),TK-10,Active
same,fold change (FC),A549 [3],2
same,growth inhibition (GI),OVCAR-8,Active
same,growth inhibition (GI),SK-MEL-5,Active
same,growth inhibition (GI),HT-29,Active
same,growth inhibition (GI),HOP-92,Active
same,Activity,A549 [4],69.52%
same,growth inhibition (GI),HOP-62,Active
same,growth inhibition (GI),SF-295,Active
same,growth inhibition (GI),KM12,Active
same,growth inhibition (GI),NCI-H522,Active
same,growth inhibition (GI),SF-539,Active
same,Activity,A549 [5],6.63%
same,Activity,A549 [6],inactive
same,growth inhibition (GI),BT-549,Active
same,Activity,A549 [7],89.38%
same,growth inhibition (GI),T47D,Active
same,inhibition,A549 [8],Active
same,growth inhibition (GI),UO-31,Active

# From ChEMBL document CHEMBL3621049, “Imidazole derivatives show anticancer potential by inducing apoptosis and cellular senescence” (2014)
